# Reference: BigSolDB 2.1
Structure (SMILES),"solubility (mole fraction) (in n-octanol, 293.15 K)","solubility (mole fraction) (in n-octanol, 298.15 K)","solubility (mole fraction) (in n-octanol, 303.15 K)","solubility (mole fraction) (in n-octanol, 310.15 K)","solubility (mole fraction) (in n-octanol, 315.15 K)","solubility (mole fraction) (in water, 295.15 K)","solubility (mole fraction) (in water, 298.15 K)","solubility (mole fraction) (in water, 303.15 K)","solubility (mole fraction) (in water, 310.15 K)","solubility (mole fraction) (in water, 315.15 K)","solubility (mole fraction) (in water, 293.15 K)","solubility (mole fraction) (in n-octanol, 290.15 K)"
Cc1ccc(Cl)cc1NS(=O)(=O)c1ccc(N)cc1,0.00153,0.00188,0.00221,0.00273,0.00323,6.16e-07,7.72e-07,1.03e-06,1.51e-06,2.12e-06,,
Cc1ccc(NS(=O)(=O)c2ccc(N)cc2)cc1Cl,0.000491,0.000552,0.00064,0.000801,0.000897,,1.53e-07,1.79e-07,2.25e-07,2.56e-07,1.26e-07,
Nc1ccc(S(=O)(=O)Nc2cc(Cl)ccc2Cl)cc1,,0.000412,0.000529,0.000667,0.00089,,7.25e-07,8.98e-07,1.03e-06,1.24e-06,6.12e-07,0.000347
Nc1ccc(S(=O)(=O)Nc2ccc(Cl)cc2)c(Cl)c1,0.0021,0.00248,0.00287,0.00349,0.00391,,4.72e-07,5.62e-07,6.86e-07,8.12e-07,4.05e-07,
Cc1cc(N)ccc1S(=O)(=O)Nc1ccccc1[N+](=O)[O-],0.000152,0.000198,0.000247,0.000345,0.000449,,5.17e-07,5.79e-07,8.02e-07,9.35e-07,4.41e-07,
Nc1ccc(S(=O)(=O)Nc2ccccc2Cl)c(Cl)c1,5.85e-05,7.4e-05,9.37e-05,0.000128,0.000164,,1.19e-07,1.35e-07,1.55e-07,1.75e-07,1.05e-07,
Nc1ccc(S(=O)(=O)Nc2ccc(Cl)cc2)cc1,,0.00132,0.00145,0.00153,0.00167,,1.19e-06,1.51e-06,2.02e-06,2.84e-06,9.2e-07,0.00126
Cc1cc(Cl)ccc1NS(=O)(=O)c1ccc(N)cc1,0.00426,0.00489,0.00556,0.00675,0.00786,,1.61e-06,2.11e-06,3.08e-06,3.74e-06,1.25e-06,
Nc1ccc(S(=O)(=O)Nc2ccc(Cl)c(Cl)c2)cc1,,0.000356,0.000422,0.000501,0.000617,,2.05e-07,2.48e-07,3.26e-07,3.89e-07,1.67e-07,0.000317
Cc1ccc(NS(=O)(=O)c2ccc(N)cc2)c(Cl)c1,0.00133,0.00158,0.0018,0.00221,0.00259,7.06e-07,7.65e-07,9.36e-07,1.18e-06,1.45e-06,,
Cc1cc(N)ccc1S(=O)(=O)Nc1ccc(Cl)cc1,0.00319,0.00356,0.00393,0.00465,0.00519,,6.71e-07,9.04e-07,1.35e-06,1.68e-06,4.79e-07,
Cc1cc(N)ccc1S(=O)(=O)Nc1ccccc1Cl,8.97e-05,0.000115,0.000143,0.000192,0.000242,,1.57e-07,1.74e-07,2.07e-07,2.32e-07,1.39e-07,
Nc1ccc(S(=O)(=O)Nc2cc(Cl)c(Cl)cc2Cl)cc1,0.00097,0.00109,0.00118,0.00146,0.00179,,2.51e-07,2.74e-07,3.07e-07,3.33e-07,2.22e-07,
